Results as given in US9617304B2, “Pharmaceutical composition containing an endocytic motif and protein transduction domains for preventing or treating cancer” (Korea Research Institute Of Bioscience And Biotechnology, priority 2011, dated 2017).

B1: Tac/3S: fusion protein of Tac and 3S polypeptide (protein)
chain: ELCDDDPPEIPHATFKAMAYKEGTMLNCECKRGFRRIKSGSLYMLCTGNSSHSSWDNQCQCTSSATRNTTKQVTPQPEEQKERKTTEMQSPMQPVDQASLPGHCREPPPWENEATERIYHFVVGQMVYYQCVQGYRALHRGPAESVCKMTHGKTRWTQPQLICTGEMETSQFPGEEKPQASPEGRPESETSCLVTTTDFQIQTEMAATMETSIFTTEYQKCVAPYPSLLSSEDNA

How the values were obtained:
Tac/3S chimeric protein = assay: Endocytosis of Tac/3S chimeric protein in COS-7 cells after pretreatment with inhibitors; type: cell-based; conditions: for endocytosis of Tac/3S chimeric protein: COS-7, 100 μg/ml ConA, 80 μM Dynasore, 1 μM Go6976, 1 μM K252a, 1 μM Vinblastine, 30 minutes pretreatment
Procedure: Each of plasmid DNAs encoding Tac chimeric proteins illustrated in FIG. 2 was expressed in COS-7 cell line to induce endocytosis. To quantify endocytosis percentage, the following method was used. First, plasmid DNA was transfected into COS-7 cell line, and next day, cells were suspended in DMED supplemented with 10% FBS, and seeded onto an 8-well slide glass (Thermo, 154534) to 50% confluency. Next day, to block endocytosis, cells were transferred at 4° C. and left for 30 minutes. Anti-Tac (BD BIOSCIENCES, 347640) antibody was diluted in DMEM supplemented with 10% FBS at a ratio of 1:10, and treated at 4° C. for 30 minutes. The cells were washed with medium three times. To induce endocytosis again, the cells were transferred at 5% CO2 and 37° C., and left for different time periods. The cells were fixed in 4% paraformaldehyde for 45 minutes at room temperature. To detect cell surface anti-Tac antibody, anti-mouse IgG-ALEXA FLUOR 488 (INVITROGEN, A-11001) was diluted with PBS containing 3% normal goat serum (Vector, S-1000) at a ratio of 1:500, and treated at room temperature for 1 hour. Then, the cells were washed with PBST for 5 minutes three times. For permeablization and blocking, the cells were treated with PBST containing 3% normal goat serum at room temperature for 1 hour. Next, to detect intracellular Tac, anti-mouse IgG-ALEXA FLUOR 568 (INVITROGEN, A11061) was diluted with PBST containing 3% normal goat serum at a ratio of 1:500, and treated at room temperature for 1 hour. The cells were washed with PBST three times, and mounted in Mounting Medium with DAPI (Vector, H-1200). Next day, the sample was examined by fluorescence microscopy (Olympus IX2-UCB). For treatment of inhibitors, 100 μg/ml ConA (SIGMA, C0412), 80 μM Dynasore (SIGMA, D7693), 1 μM Go6976 (CALBIOCHEM, 365250), 1 μM K252a (INVITROGEN, PHZ1131) and 1 μM Vinblastine (SIGMA, V1377) were pretreated at 5% CO2 and 37° C. for 30 minutes, before endocytosis assay.

COS-7 cells = assay: Endocytosis of Tac chimeric proteins expressed in COS-7 cells, fluorescence microscopy; type: cell-based
Procedure: To quantify endocytosis percentage, the following method was used. First, plasmid DNA was transfected into COS-7 cell line, and next day, cells were suspended in DMED supplemented with 10% FBS, and seeded onto an 8-well slide glass (Thermo, 154534) to 50% confluency. Next day, to block endocytosis, cells were transferred at 4° C. and left for 30 minutes. Anti-Tac (BD BIOSCIENCES, 347640) antibody was diluted in DMEM supplemented with 10% FBS at a ratio of 1:10, and treated at 4° C. for 30 minutes. The cells were washed with medium three times. To induce endocytosis again, the cells were transferred at 5% CO2 and 37° C., and left for different time periods. The cells were fixed in 4% paraformaldehyde for 45 minutes at room temperature. […] Next day, the sample was examined by fluorescence microscopy (Olympus IX2-UCB). […] To quantify endocytosis of Tac chimeric proteins expressed in COS-7 cells over time, the following Equation was used. […] As such, green fluorescence intensity indicates the amount of cell surface Tac, and red fluorescence intensity signifies those of endocytosed Tac plus partial cell surface Tac. […] Partially detected surface Tac by anti-mouse IgG-ALEXA FLUOR 568 was measured by comparing fluorescence intensity between green and red at 0 min in which no endocytosis occurred. Red fluorescence intensity was 0.429-fold or green fluorescence intensity at 0 min, which was defined as α. […]

Molecule | transportation of Tac/3S protein to the perinuclear region (Tac/3S chimeric protein; COS-7, 1 μM Vinblastine) | endocytosis of Tac/3S chimeric protein (Tac/3S chimeric protein) | subcellular localization (colocalization test) (COS-7 cells)
CC[C@]1(O)C[C@@H]2CN(CCc3c([nH]c4ccccc34)[C@@](C(=O)OC)(c3cc4c(cc3OC)N(C)[C@H]3[C@@](O)(C(=O)OC)[C@H](OC(C)=O)[C@]5(CC)C=CCN6CC[C@]43[C@@H]65)C2)C1 [Vinblastine] | blocked | not inhibited | –
O=C(N/N=C/c1ccc(O)c(O)c1)c1cc2ccccc2cc1O [Dynasore] | – | inhibited | –
COC(=O)[C@@]1(O)C[C@H]2O[C@]1(C)n1c3ccccc3c3c4c(c5c6ccccc6n2c5c31)C(=O)NC4 [K252a] | – | not inhibited | –
Concannavalin A [ConA] | – | inhibited | –
Cn1c2ccccc2c2c3c(c4c5ccccc5n(CCC#N)c4c21)CNC3=O [Go6976] | – | inhibited | –
B1 | – | – | partially merged with ER tracker
